In patent US12042511B1, “Inhalation delivery methods and compositions for vitamin B12” (priority 2017, dated 2024):

Experiments:
[1] = B12 blood levels after inhalation of methylcobalamin solution (vaporizer/electronic cigarette); assay type: in vivo, human
Protocol: A new method for vitamin B12 supplementation involves determining that a person has a disorder causing the person to have a reduced ability to process one or more forms of B-vitamins and convert them into a usable form in the body and administering methylcobalamin to the person in aerosol form or in water vapor, for inhalation. In some embodiments, the person is determined to have a MTHFR gene mutation. In some embodiments, the methylcobalamin is administered as part of a mixture also comprising vegetable glycerin and water. In some embodiments, the determined disorder includes anemia, pernicious anemia, and/or advanced age. In some embodiments, administering methylcobalamin involves administering at least 500 mcg of methylcobalamin in one day or in one week. For example, 500 mcg of methylcobalamin may be administered in a single daily or weekly dose. Depending on the concentration of the methylcobalamin in the solution used to administer the methylcobalamin, 500 mcg of methylcobalamin may be administered in 0.01 mL or more of solution. The concentration of methylcobalamin in solution for a vaporizer/electronic cigarette application in some embodiments is 1,000 mcg/mL or higher, in preferred embodiments 2,000 mcg/mL or higher. […]

[2] = bioavailability/absorption of methylcobalamin in inhalable form compared with other forms of B12; assay type: in vivo, human; details: persons with a methylenetetrahydrofolate reductase (MTHFR) genetic mutation
Protocol: When a person is determined to have MTHFR or another condition that causes the person to have a reduced ability to process B-vitamin supplements and convert them into a usable form in the body, the person may be administered methylcobalamin by inhalation for proper B12 supplementation.

C/C1=C2/[N-][C@H]([C@H](CC(N)=O)[C@@]2(C)CCC(=O)NC[C@@H](C)OP(=O)([O-])O[C@H]2[C@@H](O)[C@@H](n3cnc4cc(C)c(C)cc43)O[C@@H]2CO)[C@]2(C)N=C(/C(C)=C3N=C(/C=C4N=C1[C@@H](CCC(N)=O)C\4(C)C)[C@@H](CCC(N)=O)[C@]\3(C)CC(N)=O)[C@@H](CCC(N)=O)[C@]2(C)CC(N)=O.[CH3-].[Co+3] [methylcobalamin]
levels of B12 in a user's blood ([1]; lower concentrations (below 1,000 mcg/mL) of methylcobalamin in solution): no effect on the user's blood levels of B12
levels of B12 in a user's blood ([1]; methylcobalamin concentration in solution 1,000 mcg/mL or higher, vaporizer/electronic cigarette, immediately after treatment (within about 5 minutes) and persistently): substantially increasing levels of B12 in a user's blood
absorption relative to other forms of B12 [2]: more easily absorbed than other forms of B12
